Reference: ChEMBL document CHEMBL1201862, “PubChem BioAssay data set” (2004)
Counter-ions that a name gives are not always drawn. Active and inactive are the calls of the source.

Key:
[1] = target: T1, Coagulation factor XII (Homo sapiens, UniProt P00748); type: functional;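 further: activated factor XIIa alpha cleaving a fluorogenic AMC peptide substrate; inhibitor potency from loss of enzyme activity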
T1 sequence (P00748 whole entry): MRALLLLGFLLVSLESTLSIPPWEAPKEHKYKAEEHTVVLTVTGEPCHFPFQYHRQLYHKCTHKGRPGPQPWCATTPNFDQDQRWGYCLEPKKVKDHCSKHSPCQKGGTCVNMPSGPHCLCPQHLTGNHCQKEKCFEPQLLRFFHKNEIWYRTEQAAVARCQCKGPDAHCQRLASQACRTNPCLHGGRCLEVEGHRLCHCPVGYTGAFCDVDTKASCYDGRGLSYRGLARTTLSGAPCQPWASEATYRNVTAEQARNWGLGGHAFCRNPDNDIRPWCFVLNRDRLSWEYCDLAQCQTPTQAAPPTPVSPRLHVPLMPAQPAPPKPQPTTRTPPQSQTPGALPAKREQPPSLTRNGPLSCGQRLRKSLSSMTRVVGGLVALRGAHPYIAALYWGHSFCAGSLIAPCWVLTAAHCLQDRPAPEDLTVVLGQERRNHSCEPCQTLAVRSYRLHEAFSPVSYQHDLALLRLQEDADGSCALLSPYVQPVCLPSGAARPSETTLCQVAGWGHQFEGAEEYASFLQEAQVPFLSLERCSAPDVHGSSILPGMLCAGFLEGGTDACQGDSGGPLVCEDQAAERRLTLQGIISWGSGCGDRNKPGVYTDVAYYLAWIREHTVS

[2] = target: SWI/SNF-related matrix-associated actin-dependent regulator of chromatin subfamily A member 2 (Homo sapiens, UniProt P51531); assay: Luminescence-based cell-based high throughput dose response assay to identify activators of the function of SWI/SNF related, matrix associated, actin dependent regulator of chromatin, subfamily a, member 2 (SMARCA2, BRM).; type: functional
[3] = Counterscreen for activators of the function of SWI/SNF related, matrix associated, actin dependent regulator of chromatin, subfamily a, member 2 (SMARCA2, BRM): Luminescence-based cell-based high throughput dose response assay to identify non-selective compounds using the VP16 reporter assay.; type: functional
[4] = THP-1 cell cytotoxicity, dose response, cytotoxicity control for Vif-APOBEC3G degradation inhibitor project, THP-1 cells (AID 1117359); type: functional; conditions: Human immunodeficiency virus 1, THP-1
[5] = target: T2, Carboxy-terminal domain RNA polymerase II polypeptide A small phosphatase 1 (Homo sapiens, UniProt Q9GZU7); assay: inhibitors of CTDSP1, concentration-response testing, biochemical assay, absorbance-based, actives from ultra-high-throughput screening (AID 540297); type: functional
T2 sequence (Q9GZU7 whole entry): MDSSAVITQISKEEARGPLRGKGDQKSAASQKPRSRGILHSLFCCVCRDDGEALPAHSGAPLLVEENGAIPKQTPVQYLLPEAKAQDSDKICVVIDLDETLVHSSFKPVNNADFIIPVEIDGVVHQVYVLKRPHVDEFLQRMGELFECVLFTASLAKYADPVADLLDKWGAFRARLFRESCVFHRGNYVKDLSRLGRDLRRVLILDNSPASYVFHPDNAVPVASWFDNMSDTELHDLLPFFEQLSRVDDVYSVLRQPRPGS

[6] = target: 26S proteasome non-ATPase regulatory subunit 14 (Homo sapiens, UniProt O00487); assay: inhibition of proteasome subunit RPN11 – biochemical, fluorescence polarization, uHTS hits, confirmation (AID 602368); type: functional
[7] = target: 72 kDa type IV collagenase (Homo sapiens, UniProt P08253); assay: Dose Response validation of uHTS RPN11 inhibitor hits using a MMP-2 Fluorescence assay.; type: functional
[8] = target: Prothrombin (Bos taurus, UniProt P00735); assay: thrombin inhibition, dose response, biochemical, fluorescence polarization, uHTS hits (AID 602369); type: functional
[9] = target: T3, Low molecular weight phosphotyrosine protein phosphatase (Homo sapiens, UniProt P24666); type: functional; conditions: read-out: IC50_Mean
T3 sequence (P24666 whole entry): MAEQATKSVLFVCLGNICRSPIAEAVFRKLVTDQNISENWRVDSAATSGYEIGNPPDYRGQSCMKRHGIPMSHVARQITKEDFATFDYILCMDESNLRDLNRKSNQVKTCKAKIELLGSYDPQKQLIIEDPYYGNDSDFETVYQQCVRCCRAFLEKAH

[10] = target: T3, Low molecular weight phosphotyrosine protein phosphatase; type: functional; conditions: read-out: IC50_Mean; remark: listed apart in the source
[11] = target: T4, Tyrosine-protein phosphatase non-receptor type 22 (Homo sapiens, UniProt Q9Y2R2); assay: LYP phosphatase inhibition for selectivity, dose response, selectivity assay for LMPTP inhibitor project, biochemical, fluorescence, LYP catalytic domain (AID 652006); type: functional; conditions: read-out: IC50_Mean
T4 sequence (Q9Y2R2 whole entry): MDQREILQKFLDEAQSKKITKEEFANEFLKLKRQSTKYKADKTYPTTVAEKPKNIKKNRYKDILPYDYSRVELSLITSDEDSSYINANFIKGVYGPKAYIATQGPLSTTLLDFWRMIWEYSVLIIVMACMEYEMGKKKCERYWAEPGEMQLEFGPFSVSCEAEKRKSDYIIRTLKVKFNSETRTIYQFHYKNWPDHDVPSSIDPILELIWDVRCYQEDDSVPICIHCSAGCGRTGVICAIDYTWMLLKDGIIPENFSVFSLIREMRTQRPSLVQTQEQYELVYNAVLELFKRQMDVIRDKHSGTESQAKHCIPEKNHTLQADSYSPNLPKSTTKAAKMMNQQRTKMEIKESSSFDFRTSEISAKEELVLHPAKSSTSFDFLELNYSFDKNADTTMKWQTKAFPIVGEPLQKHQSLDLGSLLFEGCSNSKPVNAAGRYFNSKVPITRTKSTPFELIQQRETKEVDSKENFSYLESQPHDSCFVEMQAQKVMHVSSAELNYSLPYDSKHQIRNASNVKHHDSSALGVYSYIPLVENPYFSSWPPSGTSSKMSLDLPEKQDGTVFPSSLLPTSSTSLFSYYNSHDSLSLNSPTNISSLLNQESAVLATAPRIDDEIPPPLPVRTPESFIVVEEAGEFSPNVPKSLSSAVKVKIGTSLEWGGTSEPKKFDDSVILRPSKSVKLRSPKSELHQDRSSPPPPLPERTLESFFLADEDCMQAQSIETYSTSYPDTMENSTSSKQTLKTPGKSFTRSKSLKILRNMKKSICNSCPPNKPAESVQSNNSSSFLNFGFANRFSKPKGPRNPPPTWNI

[12] = target: Mu-type opioid receptor (Homo sapiens, UniProt P35372); type: functional, cell-based;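 further: U2OS cells with beta-arrestin recruitment to OPRM1 by beta-gal complementation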
[13] = target: 5-hydroxytryptamine receptor 2A (Mus musculus, UniProt P35363); type: functional, cell-based;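 further: CHO-K1 cells with tagged receptor and beta-arrestin; agonist potency measured as compound-induced activation of the receptor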
[14] = tested on: Vero; assay: Vero cell toxicity, dose response, cytotoxicity control, plate reader, cherry-pick samples (AID 687020); type: functional, cell-based; conditions: Chlorocebus sabaeus
[15] = target: Platelet-activating factor acetylhydrolase (Homo sapiens, UniProt Q13093); assay: Late stage assay provider results from the probe development effort to identify inhibitors of plasma platelet activating factor acetylhydrolase (pPAFAH): fluorescence-based dose response biochemical gel-based competitive Activity-Based Protein Profiling (ABPP) inhibition of human pPAFAH.; type: functional, cell-free
[16] = target: Platelet-activating factor acetylhydrolase (Mus musculus, UniProt Q60963); assay: Late stage assay provider results from the probe development effort to identify inhibitors of pPAFAH: fluorescence-based dose-response biochemical gel-based competitive Activity-Based Protein Profiling (ABPP) assay for SAR compounds.; type: functional
[17] = target: Disintegrin and metalloproteinase domain-containing protein 17 (Homo sapiens, UniProt P78536); assay: exosite inhibitors of ADAM17, dose response, biochemical (AID 743260)
[18] = ADAM10 protease inhibitors, dose response, selectivity assay for ADAM17 exosite inhibitor project, biochemical, FRET peptide substrate, recombinant human ADAM10 (AID 743259);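 further: ADAM10 enzyme cleaving a FRET peptide substrate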
[19] = miR-122 activators in hepatoma reporter cells, dose response, cell-based, Huh7 psiCHECK-miR122, Renilla luciferase, cherry-picked (AID 651956); type: functional;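 further: huh7 hepatoma cells stably carrying a psiCHECK-2 miR-122 sensor plasmid; renilla luciferase signal reporting endogenous miR-122 activity after 48 h compound exposure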
[20] = Luminescence Cell-Based Dose Retest to Confirm Inhibitors of Cancer Stem Cells. [Related pubchem assays (depositor defined):AID2717, AID2721]; type: functional; conditions: Homo sapiens
[21] = cytotoxicity in HEK-293T cells, dose response, cytotoxicity control for TCR NF-kB inhibitor project, luminescence, T-cell screen hits (AID 489026); type: functional, cell-based;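 further: cells exposed to compound about 14 hours before the viability readout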
[22] = target: FAD-linked sulfhydryl oxidase ALR (Homo sapiens, UniProt P55789); assay: inhibitors of human ALR sulfhydryl oxidase, dose response, biochemical, H2O2 detection, luminescence, cherry-pick (AID 493248)
[23] = Shn3 3'UTR reporter inhibitors, dose response, cell-based, Clone20 osteoblasts, firefly luciferase, cherry-picked (AID 624132); type: functional;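 further: firefly luciferase luminescence from reporter carrying the Shn3 3'UTR in osteoblasts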
[24] = HepG2 cell cytotoxicity, dose response, cytotoxicity control for Shn3 inhibitor project, CellTiter-Glo, cherry-picked (AID 624134); type: functional, cell-based
[25] = control 3'UTR Renilla luciferase suppression, dose response, counter-screen for Shn3 inhibitor project, cell-based, Clone20-Shn3RL, cherry-picked (AID 624133); type: functional
[26] = MDA-MB-231 cell growth inhibition, dose response, cytotoxicity control for RAD54 inhibitor project, CellTiter-Glo luminescence, cherry-pick (AID 651692); type: functional, cell-based
[27] = DNA binding of candidate compounds, dose response, artefact control for RAD54 inhibitor project, biochemical, fluorescence polarization, cherry-pick (AID 651673); type: functional
[28] = target: T5, DNA repair and recombination protein RAD54-like (Homo sapiens, UniProt Q92698); assay: inhibitors of human RAD54 branch migration, confirmation, biochemical, fluorescence, cherry-picked samples, dose series (AID 651657); type: functional
T5 sequence (Q92698 whole entry): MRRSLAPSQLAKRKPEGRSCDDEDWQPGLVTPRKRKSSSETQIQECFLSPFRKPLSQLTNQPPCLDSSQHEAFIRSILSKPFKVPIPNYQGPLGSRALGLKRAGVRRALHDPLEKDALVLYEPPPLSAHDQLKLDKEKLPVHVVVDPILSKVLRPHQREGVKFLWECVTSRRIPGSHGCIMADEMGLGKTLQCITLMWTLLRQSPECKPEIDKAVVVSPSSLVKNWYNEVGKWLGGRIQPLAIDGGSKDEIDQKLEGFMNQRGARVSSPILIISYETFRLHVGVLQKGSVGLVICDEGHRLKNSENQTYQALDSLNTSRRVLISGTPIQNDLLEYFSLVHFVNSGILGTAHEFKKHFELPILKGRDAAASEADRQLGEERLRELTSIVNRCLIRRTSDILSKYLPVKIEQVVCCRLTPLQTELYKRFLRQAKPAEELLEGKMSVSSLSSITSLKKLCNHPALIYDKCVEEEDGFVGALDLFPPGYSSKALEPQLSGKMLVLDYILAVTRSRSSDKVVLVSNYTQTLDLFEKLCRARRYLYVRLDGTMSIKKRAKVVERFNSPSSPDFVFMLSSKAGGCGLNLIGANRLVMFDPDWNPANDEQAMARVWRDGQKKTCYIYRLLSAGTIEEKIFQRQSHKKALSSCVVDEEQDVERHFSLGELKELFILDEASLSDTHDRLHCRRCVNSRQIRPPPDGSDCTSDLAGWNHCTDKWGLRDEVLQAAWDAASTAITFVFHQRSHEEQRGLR

[29] = target: T6, DNA repair protein RAD52 homolog (Homo sapiens, UniProt P43351); type: functional, biochemical
T6 sequence (P43351 whole entry): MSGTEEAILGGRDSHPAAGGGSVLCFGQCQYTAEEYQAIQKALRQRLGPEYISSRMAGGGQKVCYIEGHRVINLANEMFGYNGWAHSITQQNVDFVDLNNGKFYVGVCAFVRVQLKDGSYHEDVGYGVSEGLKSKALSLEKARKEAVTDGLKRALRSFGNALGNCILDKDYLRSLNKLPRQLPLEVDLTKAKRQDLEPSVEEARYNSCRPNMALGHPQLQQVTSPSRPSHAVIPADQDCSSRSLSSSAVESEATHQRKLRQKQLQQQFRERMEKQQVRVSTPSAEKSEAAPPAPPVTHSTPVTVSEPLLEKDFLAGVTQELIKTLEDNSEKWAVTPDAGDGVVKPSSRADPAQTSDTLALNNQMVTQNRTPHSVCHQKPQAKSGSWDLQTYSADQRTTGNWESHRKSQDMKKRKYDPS

Sequence of 72 kDa type IV collagenase (P08253 whole entry): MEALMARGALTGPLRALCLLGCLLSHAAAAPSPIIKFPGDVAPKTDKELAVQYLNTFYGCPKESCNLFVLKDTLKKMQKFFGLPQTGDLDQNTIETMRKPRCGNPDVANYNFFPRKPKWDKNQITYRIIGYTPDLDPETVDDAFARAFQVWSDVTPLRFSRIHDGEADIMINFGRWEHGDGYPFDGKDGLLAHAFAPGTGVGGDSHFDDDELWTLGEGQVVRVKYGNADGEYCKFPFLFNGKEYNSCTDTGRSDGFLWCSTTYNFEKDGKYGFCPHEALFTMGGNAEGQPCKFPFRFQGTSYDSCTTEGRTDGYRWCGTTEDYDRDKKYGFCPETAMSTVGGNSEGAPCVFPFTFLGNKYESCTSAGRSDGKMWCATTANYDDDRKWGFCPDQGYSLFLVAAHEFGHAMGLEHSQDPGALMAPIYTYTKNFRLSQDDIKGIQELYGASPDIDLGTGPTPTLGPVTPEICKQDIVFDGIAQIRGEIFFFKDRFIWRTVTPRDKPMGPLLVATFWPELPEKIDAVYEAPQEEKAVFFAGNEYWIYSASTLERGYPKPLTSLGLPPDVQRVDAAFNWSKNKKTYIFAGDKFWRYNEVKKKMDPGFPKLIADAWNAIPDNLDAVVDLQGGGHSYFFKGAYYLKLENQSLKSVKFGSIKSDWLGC
Sequence of FAD-linked sulfhydryl oxidase ALR (P55789 whole entry): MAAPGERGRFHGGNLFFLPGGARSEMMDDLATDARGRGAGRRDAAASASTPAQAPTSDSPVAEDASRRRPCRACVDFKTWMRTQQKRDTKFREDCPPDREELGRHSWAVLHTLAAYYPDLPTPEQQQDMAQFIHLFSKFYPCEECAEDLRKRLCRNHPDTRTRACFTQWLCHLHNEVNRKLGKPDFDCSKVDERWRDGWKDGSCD
Sequence of Platelet-activating factor acetylhydrolase (Mus musculus, UniProt Q60963) (Q60963 whole entry, the tested form may be a part): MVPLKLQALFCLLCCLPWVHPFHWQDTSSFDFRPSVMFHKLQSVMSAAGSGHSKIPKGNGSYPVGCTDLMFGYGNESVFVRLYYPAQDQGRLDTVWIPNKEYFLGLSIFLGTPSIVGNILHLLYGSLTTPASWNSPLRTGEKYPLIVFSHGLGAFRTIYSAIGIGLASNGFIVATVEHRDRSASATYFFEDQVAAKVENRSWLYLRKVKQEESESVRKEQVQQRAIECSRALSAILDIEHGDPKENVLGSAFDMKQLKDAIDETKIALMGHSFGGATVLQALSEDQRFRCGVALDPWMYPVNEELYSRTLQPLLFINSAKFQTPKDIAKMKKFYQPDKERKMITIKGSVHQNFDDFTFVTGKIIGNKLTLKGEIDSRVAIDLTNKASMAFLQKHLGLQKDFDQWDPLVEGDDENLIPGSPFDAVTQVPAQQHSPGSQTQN
Sequence of Platelet-activating factor acetylhydrolase (Homo sapiens, UniProt Q13093) (Q13093 whole entry): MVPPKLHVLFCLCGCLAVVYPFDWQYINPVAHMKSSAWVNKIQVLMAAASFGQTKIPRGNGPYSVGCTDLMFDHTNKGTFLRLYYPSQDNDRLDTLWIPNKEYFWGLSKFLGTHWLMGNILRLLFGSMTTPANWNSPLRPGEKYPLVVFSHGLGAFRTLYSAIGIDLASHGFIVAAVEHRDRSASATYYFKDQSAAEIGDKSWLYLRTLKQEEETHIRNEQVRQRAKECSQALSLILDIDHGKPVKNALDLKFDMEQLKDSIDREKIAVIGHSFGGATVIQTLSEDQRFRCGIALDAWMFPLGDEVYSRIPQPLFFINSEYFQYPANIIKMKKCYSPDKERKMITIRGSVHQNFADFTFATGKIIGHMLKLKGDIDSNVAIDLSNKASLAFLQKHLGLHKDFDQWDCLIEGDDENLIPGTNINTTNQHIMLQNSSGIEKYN
Sequence of Disintegrin and metalloproteinase domain-containing protein 17 (P78536 whole entry, the tested form may be a part): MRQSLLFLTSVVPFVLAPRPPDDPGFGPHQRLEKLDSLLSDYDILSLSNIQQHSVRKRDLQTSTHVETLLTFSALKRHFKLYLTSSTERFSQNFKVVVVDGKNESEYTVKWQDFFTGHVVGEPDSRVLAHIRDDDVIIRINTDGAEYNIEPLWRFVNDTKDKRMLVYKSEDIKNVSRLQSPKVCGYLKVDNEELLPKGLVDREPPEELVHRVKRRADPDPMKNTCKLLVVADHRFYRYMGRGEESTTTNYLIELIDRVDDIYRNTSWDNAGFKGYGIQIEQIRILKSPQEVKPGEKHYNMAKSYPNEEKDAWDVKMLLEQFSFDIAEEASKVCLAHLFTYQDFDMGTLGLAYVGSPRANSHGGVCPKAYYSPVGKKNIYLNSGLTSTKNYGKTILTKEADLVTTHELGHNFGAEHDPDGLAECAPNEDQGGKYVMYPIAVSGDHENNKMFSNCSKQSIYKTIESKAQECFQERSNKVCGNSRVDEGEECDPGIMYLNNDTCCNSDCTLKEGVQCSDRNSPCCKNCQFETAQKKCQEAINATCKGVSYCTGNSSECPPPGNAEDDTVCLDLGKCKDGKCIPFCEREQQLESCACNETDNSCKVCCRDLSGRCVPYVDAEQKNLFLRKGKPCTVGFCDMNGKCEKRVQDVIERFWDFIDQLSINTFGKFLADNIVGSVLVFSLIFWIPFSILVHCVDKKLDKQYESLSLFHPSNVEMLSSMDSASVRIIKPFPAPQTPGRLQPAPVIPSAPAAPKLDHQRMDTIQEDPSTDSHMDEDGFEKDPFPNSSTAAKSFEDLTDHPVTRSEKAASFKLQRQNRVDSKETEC
Sequence of Mu-type opioid receptor (P35372 whole entry): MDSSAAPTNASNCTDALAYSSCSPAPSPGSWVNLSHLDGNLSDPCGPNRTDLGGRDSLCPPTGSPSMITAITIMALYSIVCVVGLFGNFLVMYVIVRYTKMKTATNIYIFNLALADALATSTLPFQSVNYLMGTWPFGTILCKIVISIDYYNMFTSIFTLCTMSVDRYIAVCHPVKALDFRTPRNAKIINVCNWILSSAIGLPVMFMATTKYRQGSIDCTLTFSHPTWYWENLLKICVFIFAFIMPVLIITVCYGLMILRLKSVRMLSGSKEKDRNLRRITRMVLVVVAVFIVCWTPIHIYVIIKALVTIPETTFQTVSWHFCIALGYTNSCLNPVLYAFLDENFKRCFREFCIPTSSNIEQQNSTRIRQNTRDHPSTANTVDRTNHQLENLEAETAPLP
Sequence of SWI/SNF-related matrix-associated actin-dependent regulator of chromatin subfamily A member 2 (P51531 whole entry): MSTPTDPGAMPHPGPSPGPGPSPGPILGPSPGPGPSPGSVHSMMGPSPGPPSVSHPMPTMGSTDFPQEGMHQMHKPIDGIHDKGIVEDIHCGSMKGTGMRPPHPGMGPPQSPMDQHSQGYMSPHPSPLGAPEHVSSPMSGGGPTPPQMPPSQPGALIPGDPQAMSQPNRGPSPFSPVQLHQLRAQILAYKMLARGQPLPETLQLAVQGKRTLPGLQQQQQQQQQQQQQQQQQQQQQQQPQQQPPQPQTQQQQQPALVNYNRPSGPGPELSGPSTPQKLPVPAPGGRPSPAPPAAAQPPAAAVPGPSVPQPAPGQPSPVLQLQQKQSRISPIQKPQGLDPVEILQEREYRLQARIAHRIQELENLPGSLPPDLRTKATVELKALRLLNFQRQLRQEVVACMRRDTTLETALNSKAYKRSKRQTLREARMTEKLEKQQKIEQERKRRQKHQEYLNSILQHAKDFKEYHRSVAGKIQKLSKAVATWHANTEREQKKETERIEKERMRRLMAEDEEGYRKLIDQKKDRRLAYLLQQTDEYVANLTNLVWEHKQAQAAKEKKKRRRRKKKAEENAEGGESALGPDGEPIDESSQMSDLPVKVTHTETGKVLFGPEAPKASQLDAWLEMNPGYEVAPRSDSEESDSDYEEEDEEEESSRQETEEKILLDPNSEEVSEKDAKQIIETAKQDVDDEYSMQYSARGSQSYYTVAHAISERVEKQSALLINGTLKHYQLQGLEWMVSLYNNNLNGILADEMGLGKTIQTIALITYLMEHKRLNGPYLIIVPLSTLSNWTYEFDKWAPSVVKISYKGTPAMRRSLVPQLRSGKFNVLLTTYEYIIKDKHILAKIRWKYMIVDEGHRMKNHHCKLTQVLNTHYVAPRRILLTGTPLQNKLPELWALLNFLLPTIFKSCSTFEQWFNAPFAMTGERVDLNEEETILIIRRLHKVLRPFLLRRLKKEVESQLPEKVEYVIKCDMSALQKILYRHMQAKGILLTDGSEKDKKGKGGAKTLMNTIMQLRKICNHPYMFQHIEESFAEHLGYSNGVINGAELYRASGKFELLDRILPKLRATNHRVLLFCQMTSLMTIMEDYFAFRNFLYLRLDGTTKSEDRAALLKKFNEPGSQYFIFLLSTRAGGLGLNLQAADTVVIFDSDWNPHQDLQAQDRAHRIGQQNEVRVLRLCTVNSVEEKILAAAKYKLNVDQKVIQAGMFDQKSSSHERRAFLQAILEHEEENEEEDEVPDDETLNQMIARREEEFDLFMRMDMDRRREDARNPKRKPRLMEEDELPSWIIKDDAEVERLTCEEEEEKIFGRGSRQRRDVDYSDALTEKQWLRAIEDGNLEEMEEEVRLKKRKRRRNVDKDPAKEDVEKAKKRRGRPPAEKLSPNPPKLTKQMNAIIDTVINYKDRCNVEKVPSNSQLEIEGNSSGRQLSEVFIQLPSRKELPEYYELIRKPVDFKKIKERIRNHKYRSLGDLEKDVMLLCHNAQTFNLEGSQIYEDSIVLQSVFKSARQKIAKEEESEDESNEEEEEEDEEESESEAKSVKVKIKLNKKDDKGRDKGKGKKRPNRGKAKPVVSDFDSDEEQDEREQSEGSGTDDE
Sequence of 5-hydroxytryptamine receptor 2A (P35363 whole entry): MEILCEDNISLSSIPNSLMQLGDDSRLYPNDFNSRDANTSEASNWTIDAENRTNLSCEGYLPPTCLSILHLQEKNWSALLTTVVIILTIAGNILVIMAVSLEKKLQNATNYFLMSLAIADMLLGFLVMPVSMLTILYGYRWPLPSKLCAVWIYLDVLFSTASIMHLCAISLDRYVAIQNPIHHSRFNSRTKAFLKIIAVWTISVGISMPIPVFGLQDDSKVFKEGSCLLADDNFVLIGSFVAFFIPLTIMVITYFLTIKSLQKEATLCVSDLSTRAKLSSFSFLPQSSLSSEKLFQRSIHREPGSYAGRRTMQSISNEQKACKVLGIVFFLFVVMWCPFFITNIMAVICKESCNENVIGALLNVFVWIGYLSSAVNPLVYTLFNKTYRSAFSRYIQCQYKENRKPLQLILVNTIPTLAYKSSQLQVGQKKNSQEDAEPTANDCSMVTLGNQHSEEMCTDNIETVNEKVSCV

## CC1(C)CC(=O)C(=NNc2ccc(Br)cc2)C(=O)C1
[1]
  IC50: > 50 µM (inactive)
[2]
  EC50: > 91.1 µM (inactive)
[3]
  EC50: > 91.1 µM (inactive)
[4]
  CC50: > 40 µM (active)

## O=C(/C=C/c1ccccc1Cl)Nc1ccc2c(c1)C(=O)NC2=O
[5]
  IC50: 3.73 µM (active)
[6]
  IC50: 17.9 µM (active)
[7]
  IC50: 12 µM (active)
[8]
  IC50: 61.6 µM (active)
[9]
  IC50: 12 µM (active)
[10]
  IC50: 15.8 µM (active)
[11]
  IC50: 29 µM (inactive)

## Cc1ccc(C(=O)N/C(=C/c2ccccc2)C(=O)NC(Cc2ccccc2)C(=O)O)cc1 (centres undefined)
[12]
  EC50: 92.5 µM (inactive)
[13]
  EC50: 76.1 µM (inactive)

## Cc1cc(F)ccc1C(O)c1nc(-c2ccccc2C(F)(F)F)c[nH]1 (centres undefined)
[14]
  AC50: 33.5 µM (active)

## Cc1cc(N2CCN(C(=O)Oc3ccc(-c4ccccc4)cn3)CC2)c2ccccc2n1
[15]
  IC50: 0.006 µM (active)
[16]
  IC50: 0.031 µM (active)
[17]
  IC50: > 69.4 µM (inactive)
[18]
  IC50: > 69.4 µM (inactive)

## CNC(=O)C[C@H]1CC[C@@H]2[C@@H](COc3ccc(NC(=O)Nc4ccc(Cl)cc4)cc3C(=O)N2C)O1
[19]
  AC50: 29 µM (active)

## COc1cc(NS(C)(=O)=O)ccc1Nc1c2ccccc2nc2ccccc12 [AMSACRINE HYDROCHLORIDE]
[20]
  AC50: 0.91 µM (active)
[21]
  IC50: > 80 µM (inactive)
[22]
  AC50: 16 µM (active)
[23]
  AC50: 1.32 µM (active)
[24]
  AC50: 18.9 µM (active)
[25]
  AC50: 7.09 µM (active)
[26]
  AC50: 23.3 µM (active)
[27]
  AC50: 39.4 µM (active)
[28]
  AC50: 11.6 µM (active)
[29]
  AC50: 6.83 µM (active)
